From paper PMC4383003, “Transfer hydrogenation catalysis in cells as a new approach to anticancer drug design” (Nature Communications, 2015)
Where “and” joins values, the source holds several entries; their conditions need not be identical. Equal values may be shown once.

What was measured:
[1] = system: A2780 ovarian cancer cells; assay: Cell viability on co-administration of Ru complexes (1/3 x IC50) with formate or acetate; assay type: cell-based, human; settings: for Cell viability: A2780, complex 1/3 x IC50, 24 h
Description: Cell viability assays were carried out with complexes 1–8 in A2780 ovarian cancer cells. These experiments were carried out as described above with the following modifications: a fixed concentration of each Ru complex equal to 1/3 × IC50 was used in co-administration with three different concentrations of sodium formate or sodium acetate (0.5, 1.0 and 2.0 mM). To prepare the stock solution of the drug, the complex was dissolved in 5% dimethylsulfoxide and diluted in a 1:1 mixture of 0.9% saline:cell culture medium. This stock was further diluted using RPMI-1640 until working concentrations were achieved. Separately, stock solutions of sodium formate or sodium acetate were prepared in saline. The complex and formate were added to each well independently, but within 5 min of each other.
Supplementary Table 7: Percent cell viability of A2780 ovarian cancer cells exposed to equipotent concentrations of ruthenium complexes 1-3 and 5-8 (1/3 x […]
The experiments included 48 h of pre-incubation and 72 h of drug recovery, both in drug-free medium at 310 K in a 5% CO2 humidified atmosphere. All the experiments were performed as duplicates of triplicates in independent experiments and the error bars were calculated as the standard deviation from the mean.
Supplementary Table 11: Cell viability (%) of A2780 ovarian cancer cells exposed […]
administered with different concentrations of sodium acetate (0, 0.5, 1 and 2 mM).
The experiments involved 48 h of pre-incubation and 72 h of drug recovery, both in […]
Cell viability percentages (%)
Complex Acetate concentration (mM)

[2] = system: A2780 ovarian cancer cells; assay: Ruthenium accumulation in cancer cells (ICP-MS); assay type: cell-based, human; settings: for Cell Ru: A2780, 1/3 x IC50, 24 h drug exposure, no recovery time; for Cell accum.: A2780, 24 h, 1/3 x IC50
Description: Briefly, 1.5 × 10^6 cells per well were seeded on a six-well plate. […] After this time, cells were washed, treated with trypsin-EDTA, counted and cell pellets were collected. Each pellet was digested overnight in concentrated nitric acid (73%) at 353 K; the resulting solutions were diluted using double-distilled water to give a final concentration of 5% HNO3 and the amount of Ru taken up by the cells was determined by ICP–MS. […]
Supplementary Table 3: Antiproliferative activity of complexes 1-8 in A2780 ovarian cancer cells and their cellular accumulation (expressed as ng Ru per million cells).
The latter experiments were carried out using equipotent concentrations of the […]
experiments were performed as duplicates of triplicates in independent experiments and the error bars were calculated as the standard deviation from the mean. […]

[3] = pKa* of aqua adducts of the complexes; assay type: physicochemical; settings: pKa value determined in deuterated solvent
Excerpt: Table 1 pKa* values for aqua adducts of catalysts 1–4 (and 8 for comparison) and turnover frequencies for transfer hydrogenation of NAD^+ using formate. | column: pKa*

[4] = system: A2780 human ovarian cancer cells; assay: In vitro growth inhibition assay (SRB), A2780; assay type: cell-based; settings: A2780, Supplementary Table 3
Description: A2780 human ovarian carcinoma and MRC5 human fetal lung fibroblasts were obtained from the European Collection of Cell Cultures. Both cell lines were grown in Roswell Park Memorial Institute medium (RPMI-1640) supplemented with 10% of fetal calf serum, 1% of 2 mM glutamine and 1% penicillin/streptomycin. All cells were grown as adherent monolayers at 310 K in a 5% CO2-humidified atmosphere and passaged at ca. 70–80% confluency.
The antiproliferative activity of complexes 1–8 was determined in A2780 ovarian cancer cells and MRC5 fibroblasts. Briefly, 96-well plates were used to seed 5,000 cells per well. The plates were left to pre-incubate with drug-free medium at 310 K for 48 h before adding different concentrations of the compounds to be tested. A drug exposure period of 24 h was allowed. After this, supernatants were removed by suction and each well was washed with PBS. A further 72 h were allowed for the cells to recover in drug-free medium at 310 K. The sulforhodamine B (SRB) assay was used to determine cell viability. IC50 values, as the concentration that causes 50% cell death, were determined as duplicates of triplicates in two independent sets of experiments and their s.d. were calculated.

[5] = Transfer hydrogenation of NAD+ to 1,4-NADH with formate, followed by 1H NMR; settings: NAD+ 2 mol equiv, formate 25 mol equiv, 310 K, pH* 7.2; for TOF D2O/MeOH-d4: 23% MeOH-d4/77% D2O
Description: Complexes 1–7 were dissolved in MeOH-d4/D2O (5:1 v/v, 1.4 mM, 4 ml). Solutions of sodium formate (35 mM, 4 ml) and NAD^+ in D2O (2.8 mM, 2 ml) were also prepared and incubated at 310 K. In a typical experiment, 200-μl aliquots of each solution were added to a 5-mm NMR tube and the pH* adjusted to 7.2±0.1 (total volume 0.635 ml, final concentrations: Ru complex 0.44 mM; NAD^+ 0.88 mM; formate 11.02 mM; molar ratio 1:2:25). ^1H NMR spectra were recorded at 310 K every 162 s until the completion of the reaction.
Molar ratios of NAD^+ and NADH were determined by integrating the peaks at 9.33 and 6.96 p.p.m. (NAD^+ and 1,4-NADH, respectively). The turnover number for the reaction was calculated as follows: […]
where In is the integral of the signal at n p.p.m. and [NAD^+]0 is the concentration of NAD^+ at the start of the reaction.

[6] = system: 9-ethylguanine; assay: Binding to model nucleobase 9-ethylguanine by 1H NMR; settings: D2O, pH* 7.2 ± 0.1, 310 K
Description: Supplementary Table 4: Binding constants for formation of 9-EtG adducts of complexes 1-4 determined by 1H NMR. The experiments were performed in D2O, pH* 7.2 ± 0.1 and 310 K. Equilibrium was reached by the time the first 1H NMR spectrum was recorded (< 10 min). […]
DNA is believed to be the main target for [(bip)Ru(en)Cl]+ (8). Due to the structural similarity of the complexes 1-5 with complex 8, their binding to DNA was […]
Interaction with nucleobases
Initially, model nucleobases, 9-ethylguanine and 9-methyladenine were reacted with complexes 1-4 in D2O, 310 K and pH* 7.2 ± 0.1. The binding of the complexes to 9-EtG or 9-MeA was monitored by 1H-NMR spectroscopy. Peaks for the 9-EtG adducts were observed by the time the first spectrum was recorded (< 5 min after mixing), […]
equilibrium was reached rapidly. The binding constants for formation of 9-EtG adducts determined by NMR were between 60 and 106 mM-1 (Supplementary Table 4). These values are in the same range as that from the ethylenediamine complex [(bip)Ru(en)Cl]+ (K9-EtG= 60.3 mM-1),2 which also binds strongly to DNA.3, 4 The high resolution mass spectrum confirmed the formation of [(η6-arene)Ru(XEn)(9-EtG)]+ (Supplementary Table 5). The interaction of complexes 1-4 with 9-MeA was also investigated, but no reaction was detected by 1H-NMR.
It is well established that N7 of guanine is the preferred nucleotide binding site for many transition metals ions. 2-8 Furthermore, strong and selective binding to N7 of 9-EtG, has been observed for [(η6-arene)Ru(en)Cl]+.3, 4 A pH* titration of […]

[7] = pH* titration of the 9-EtG adduct (1H NMR); assay type: physicochemical; settings: protonation/deprotonation of N1 of coordinated 9-EtG, H8 chemical shift versus pH*
Excerpt: [(p-cym)Ru(TsEn)(9-EtG)]+ was used to confirm that the complex binds to N7. A plot
of the chemical shift of H8 from bound 9-EtG (Supplementary Figure 3), versus pH*
from coordinated 9-EtG and therefore we conclude that the binding of complex 2 to […]

Cc1ccc(C(C)C)cc1.NCC[N-]S(=O)(=O)c1ccc(C(F)(F)F)cc1.[Cl-].[Ru+2] [Complex 3, [(p-cym)Ru(TfEn)Cl]]
Cell viability ([1]; formate 0 mM): 71 ± 2%
Cell viability ([1]; formate 0.5 mM): 60± 2%
Cell viability ([1]; formate 1 mM): 39.4 ± 2.0%
Cell viability ([1]; formate 2 mM): 19 ± 2%
Cell Ru [2]: 0.31 ± 0.04 ng x 106 cells
Cell accum. [2]: 0.31 ng Ru/10^6 cells
pKa* [3]: 9.71±0.01
IC50 [4]: 14.2 ± 0.8 µM
TOF D2O/MeOH-d4 [5]: 5.7 ± 0.3 h⁻¹
TOF D2O [5]: 3.06 ± 0.05 h⁻¹
Binding constant for formation of 9-EtG adducts [6]: 60.5 ± 6.0 mM⁻¹

CS(=O)(=O)[N-]CCN.Cc1ccc(C(C)C)cc1.[Cl-].[Ru+2] [Complex 1, [(p-cym)Ru(MsEn)Cl]]
Cell viability ([1]; formate 0.5 mM): 61± 1%
Cell viability ([1]; formate 1 mM): 40.0 ± 0.4%
Cell viability ([1]; formate 2 mM): 1.5 ± 0.1% and ~1%
decrease in cell survival ([1]; A2780, formate increased from 0 to 2 mM): ca. 50 fold
Cell Ru [2]: 0.16 ± 0.02 ng x 106 cells
Cell accum. [2]: 0.16 ng Ru/10^6 cells
pKa* [3]: 9.86±0.01
IC50 [4]: 11.9 ± 0.8 µM
TOF D2O/MeOH-d4 [5]: 1.25 ± 0.03 h⁻¹
TOF D2O [5]: 1.11 ± 0.02 h⁻¹
Binding constant for formation of 9-EtG adducts [6]: 105.4 ± 2.3 mM⁻¹

CCn1cnc2c(=O)[nH]c(N)nc21.Cc1ccc(C(C)C)cc1.Cc1ccc(S(=O)(=O)[N-]CCN)cc1.[Ru+2] [[(p-cym)Ru(TsEn)(9-EtG)]+]
pKa* [7]: 8.77
